# Literature values, collected in patent US10369266B2, “Multipart fluid system and a system for citrate anticoagulation in an extracorporeal blood circuit” (Gambro Lundia AB, priority 2013, dated 2019).
# Test system: endothelial inflammation and dysfunction
# Details: citrate 0.8 mM; hypoglycemic state; in vitro
structure (smiles),measurement,value
O=C(O)CC(O)(CC(=O)O)C(=O)O [citrate],effect on endothelial inflammation and dysfunction,reduces endothelial inflammation and dysfunction
